From patent publication US6818621B2, “Osteopontin-derived chemotactic and inhibitory agents and uses therefor” (Children's Medical Center Corporation, priority 1999, dated 2004)
Marks after values point to notes of the source that are not given here.

What was measured:
[1] = test system: MDA-MB-231 cells (CD44+ human breast adenocarcinoma cells); assay: Chemotactic chamber (Boyden) assay, migration through polycarbonate filters; format: cell-based; conditions: for mean number of migrating cells per six random high powered fields: Table 2; for chemotactic response of MDA-MB231 (in words): p<0.01, 200 ng of bone OPN; for Migratory Index: Table 3, cells migrating in response to peptide/cells migration in response to LVLDPK; for MI buffer / MI: Table 4; for MI buffer: cells migrating in response to peptide divided by cells migrating in response to buffer; for MI: migratory index; for mean number of migrating cells per random high power field: Table 1, 4 hours
Method: Each peak was then tested for mediation of chemotaxis or for its ability to inhibit OPN mediated chemotaxis using the chemotactic assay as follows (see e.g., Weber et al. (1996) Science 271:509-512). Briefly, uncoated polycarbonated filters (pore size […] ) were used to separate the upper and lower chambers of chemotactic wells. 1×10^3 MDA-MB-231 cells (CD44^+human breast adenocarcinoma cells) were added to the upper chamber and incubated in the presence or absence of the indicated 50 pmols peptide. After 4 hours, the filters were removed, fixed in methanol arid stained with hematoxylin and eosin. Cells which have responded to the peptide, migrate to various areas of the lower surface and can be counted microscopically. Each data point is reported as the mean number of migrating cells per random high power field.
Peptide 51 was identified as being chemotactic. The peptide was sequenced using a gas-phase sequenator and determined to have the sequence LVLDPK (SEQ ID NO:1). To confirm that chemotaxis was due to this peptide, a 16 amino acid peptide spanning the chemotactic sequence in OPN was synthesized and tested for its chemotactic properties. The resulting peptide, SP64 has the sequence KFHSHKDKLVLDPKSK (SEQ ID NO:2) and containing the chemotactic sequence from residues 9-14. 2×10^4 MDA-MB-231 cells were assayed for chemotactic response to the indicated peptides as described above. Each data point is reported as the mean number of migrating cells per six random high powered fields ± standard error of the mean. Each experiment was repeated four times.
To test the amino acid specificity for chemotactic response several substitutions were created in the chemotactic sequence and the new peptides tested for their ability to induce chemotaxis. Data are expressed as migratory index (cells migrating in response to peptide/cells migration in response to LVLDPK, SEQ ID NO:1).
(§1) To evaluate the potential of peptide analogues to inhibit OPN induced chemotaxis, 100 nmoles of peptide was added to the lower compartment and the response of these cells to OPN was determined as described. MI(buffer) was calculated by dividing the number of cells migrating in response to peptide by the number of cells migrating in response to buffer. MI(inhibitory) equals the number of cells migrating towards OPN in the presence of buffer divided by the number migrating towards OPN in the presence of peptide.

[2] = test system: peritoneal exudate cells; assay: In vivo cellular migration after intraperitoneal injection of osteopontin, peritoneal exudate flow cytometry; parameters: species or system Mice
Method: Mice were injected intraperitoneally with varying dosages of K7 osteosarcoma-derived osteopontin. All injection volumes were 200 μl. Injections of vehicle alone (PBS) served as negative controls and vehicle plus 20 μg lipopolysaccharide (LPS) injections served as positive controls for elicitation of peritoneal exudates.
Mice were sacrificed by CO2-asphyxiation at varying times following injection. Immediately after sacrifice, peritoneal exudate was recovered by intraperitoneal injection and recovery of 10 mL PBS. The lavage procedure was performed twice on each mouse. Following this, red blood cells were lysed by hypotonic lysis with ACK lysis buffer (0.15 M NH4Cl, 1.0 mM KHCO3, 0.1 mM Na2EDTA, pH 7.4) for 5 minutes at room temperature, and the preparation was washed in DMEM, 5% FBS. Cells were resuspended in DMEM, 5% FBS for fluorescent antibody staining.
Each sample of cells to be analyzed for specific surface markers was suspended in DMEM, 5% FBS at a concentration of 0.2 to 1 million cells in 50 μl. Fluorescence-labeled antibodies were added at 1 μg/1×10^6 cells, and incubated with the cells for 30 minutes at 4° C. Samples were washed twice with 200 μl of PBS following antibody staining and fixed with 500 μl of 2% paraformaldehyde in PBS. Peritoneal exudate cells were analyzed by dual-color flow cytometry for expression of CD44 (PE), CD 11 b (Mac-1, FITC, macrophage marker), B220 (FITC, B-cell marker), and CD3 (FITC, T-cell marker). All antibodies were purchased from PharMingen and flow cytometric analysis was done using a Coulter EPICS flow cytometer. Controls for non-specific binding and single color controls were included.
To further characterize the effects of osteopontin on in vivo cellular migration, a time course experiment was performed using an osteopontin dosage that elicited peak levels of infiltration. The total cellular response to osteopontin administration peaked sharply at 4 to 6 hours. This is likely to be due to a high rate of clearance from the peritoneal cavity.

[3] = test system: cells recruited into the peritoneum; assay: In vivo chemotaxis after injection of peptide into the peritoneal cavity, lavage and flow cytometry; parameters: species or system C57 black mice; conditions: for induction ratio, Total / induction ratio, Total CD44 / induction ratio, B-lymphocytes / induction ratio, T-lymphocytes / induction ratio, Monocytes: 25 nmols i.p., 6 hours, normalized to PBS-injected mouse, average of 6 mice; for induction ratio, B-lymphocytes: B220+; for induction ratio, T-lymphocytes: CD3+; for induction ratio, Monocytes: Mac-1+
Method: Since the peptide LVLDPK (SEQ ID NO:1) was chemotactic to tumor cells and macrophages in vitro, we tested whether the peptide was chemotactic in vivo. 25 nmols of the peptide were injected into the peritoneal cavity of C57 black mice. After six hours the cells recruited into the peritoneum were recovered by lavage and identified by flow cytometry. Titration of soluble peptides into the peritoneum induces a cellular infiltrate in a dose dependent manner. The induction ratio is the number of cells of a particular lineage recovered from the peritoneum of a peptide-injected mouse (e.g., 6 hours after injection) normalized for each experiment to the number of cells of the same lineage recovered from the peritoneum of a PBS-injected mouse. Cell numbers for PBS-injected mice ranged from […] to 646,000 cells total; 182,300 to 325,000 CD44^+ cells; 224,000 to 496,000 […] cells; 31,300 to 76,000 B220^+ cells; 18,100 to 21,100 CD3^+ cells), representing the induction of macrophages (Mac-1^+), B cells (B220^+), and T cells (CD3^+). Values represent an average of 6 mice.

[4] = test system: MDA-MB-231 cells; assay: Inhibition of OPN induced chemotaxis in the chemotactic chamber assay; format: cell-based, human; conditions: for MI inhibitory: Table 4, 100 nmoles of peptide, cells migrating towards OPN in presence of buffer divided by number migrating towards OPN in presence of peptide
Method: as §1

[5] = test system: macrophage; assay: Inhibition of macrophage recruitment by osteopontin, C5a and fibronectin; conditions: C5a and by fibrorectin
[6] = test system: MDA-MB-231 cells; assay: Apoptosis by TUNEL (In situ Cell Death Detection Kit); format: cell-based, human; conditions: 100 nM, 12 hours
Method: (§2) One million MDA-MB-231 cells were incubated with 100 nM of the OPN, LVVDPK (SEQ ID NO:8), Ac-MLDP (SEQ ID NO:23) or Ac-HKDKMLDP (SEQ ID NO:24) in DME containing 10% FBS in a humidified atmosphere of 5% CO2 at […]. After 12 hours, Caspase 8 and the % of apoptotic cells were determined. Caspase was determined by a fluorescent assay using Chemicon's FLICE/Caspase-8 Fluorometric Protease Assay Kit as described by the manufacturers. Apoptosis was determined using TUNEL using the “In situ Cell Death Detection Kit” (Boehringer-Mannheim, Germany).

[7] = test system: Caspase 8; assay: FLICE/Caspase-8 Fluorometric Protease Assay; format: cell-based, human; conditions: 100 nM, 12 hours, MDA-MB-231 cells
Method: as §2

[8] = labelled agent in lower chamber, Ab64 in upper chamber
[9] = labelled agent in lower chamber, OPN in upper chamber
[10] = labelled agent in lower chamber, PBS in upper chamber, 2×10^4 cells
[11] = labelled agent in lower chamber, SP64 in upper chamber
[12] = labelled agent in lower chamber, pep 51 in upper chamber
[13] = labelled agent in upper chamber, PBS in lower chamber

Substance	mean number of migrating cells per six random high powered fields [1, 8]	mean number of migrating cells per six random high powered fields [1, 9]	mean number of migrating cells per six random high powered fields [1, 10]	mean number of migrating cells per six random high powered fields [1, 11]	mean number of migrating cells per six random high powered fields [1, 12]	mean number of migrating cells per six random high powered fields [1, 13]	chemotactic response of MDA-MB231 (in words) [1]	induction ratio, Total [3]	induction ratio, Total CD44 [3]	induction ratio, B-lymphocytes [3]	induction ratio, T-lymphocytes [3]	induction ratio, Monocytes [3]	Migratory Index [1]	MI buffer [1]	MI [1]	MI inhibitory [4]	also measured
OPN: osteopontin protein; bone OPN in vitro, K7 osteosarcoma-derived osteopontin in Example 3	36 cells per six random high powered fields	16 cells per six random high powered fields	214 cells per six random high powered fields	187 cells per six random high powered fields	44 cells per six random high powered fields	23 cells per six random high powered fields	stimulated the chemotactic response	11.3	9.6*	1.2	1	10.4*					number of CD3+ and B220+ cells ([2]; 6 hours after injection): only marginally elevated; number of Mac-1+ cells in the infiltrate ([2]; 6 hours after injection, over basal levels): increased fivefold over basal levels; peritoneal cells recovered ([2]; OPN alone): 1.16 million cells; number of CD44+ Mac1+ cells ([2]; at a dose around 7 μg): nearly sixfold reduction; dose of peak response of the cellular infiltrate ([2]; intraperitoneal, 6 hours after injection): around 13 μg; cellular infiltrate (in words) ([2]; titration into the peritoneum, 6 hours after injection): dose dependent increase
VLEP (OTHER INFORMATION: Description of Artificial Sequence:Synthetic Peptide) [pepJ′]													0.1				inhibition of chemotaxis by peptide (in words) ([4]; migratory index against peptide 51): inhibitory for chemotaxis; inhibition of macrophage recruitment [5]: inhibits macrophage recruitment
LVVDPK (OTHER INFORMATION: Description of Artificial Sequence:Synthetic Peptide) [pepA′]														9	1	8	apoptosis (in words) [6]: virtually undetectable; Caspase 8 activity (in words) [7]: virtually undetectable
LVLDPK (OTHER INFORMATION: Description of Artificial Sequence:Synthetic Peptide) [peptide 51, chemotactic tryptic peptide of osteopontin]	21 cells per six random high powered fields	48 cells per six random high powered fields	248 cells per six random high powered fields	109 cells per six random high powered fields	65 cells per six random high powered fields	6 cells per six random high powered fields	stimulated the chemotactic response	8.6*	7.9*	1.3	1.3	7.1*	1	10	1	10	chemotactic activity (in words) [1]: chemotactic; mean number of migrating cells per random high power field ([1]; labelled peptide (50 pmols) in lower chamber, PBS in upper chamber, 1×10^3 cells): 68* cells per random high power field; mean number of migrating cells per random high power field ([1]; labelled peptide in lower chamber, peptide 49 in upper chamber): 83* cells per random high power field; mean number of migrating cells per random high power field ([1]; labelled peptide in lower chamber, peptide 50 in upper chamber): 56* cells per random high power field; mean number of migrating cells per random high power field ([1]; labelled peptide in lower chamber, peptide 51 in upper chamber): 32 cells per random high power field; mean number of migrating cells per random high power field ([1]; labelled peptide in lower chamber, peptide 52 in upper chamber): 78* cells per random high power field; mean number of migrating cells per random high power field ([1]; labelled peptide in lower chamber, peptide 53 in upper chamber): 62* cells per random high power field; mean number of migrating cells per random high power field ([1]; labelled peptide in upper chamber, PBS in lower chamber): 13 cells per random high power field; chemotactic activity in vivo (in words) ([3]; mouse, in vivo): chemotactic to macrophages in vivo
